Results on 10 molecules are retold here after publication PMC12125979, “Complete xylan utilization pathway and regulation mechanisms involved in marine algae degradation by cosmopolitan marine and human gut microbiota” (The ISME Journal, 2025).

The target of one series is T1, BxlE (Streptomyces thermoviolaceus, UniProt Q76BU9).
T1 construct: gene bxlD
T1 sequence (Q76BU9 1-436): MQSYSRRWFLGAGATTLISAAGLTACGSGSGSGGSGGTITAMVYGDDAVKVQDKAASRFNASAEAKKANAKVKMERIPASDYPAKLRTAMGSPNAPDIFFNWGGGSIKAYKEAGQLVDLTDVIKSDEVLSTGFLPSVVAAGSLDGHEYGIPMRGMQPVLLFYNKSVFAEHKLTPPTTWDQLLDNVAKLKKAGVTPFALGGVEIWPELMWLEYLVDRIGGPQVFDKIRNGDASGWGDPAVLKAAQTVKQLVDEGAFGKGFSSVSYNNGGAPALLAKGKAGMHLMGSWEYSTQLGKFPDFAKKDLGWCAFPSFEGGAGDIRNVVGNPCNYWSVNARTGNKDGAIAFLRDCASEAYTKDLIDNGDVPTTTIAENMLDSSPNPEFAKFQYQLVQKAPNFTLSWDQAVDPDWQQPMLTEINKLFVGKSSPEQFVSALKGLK
Briefly: biochemical. More on the design: isothermal titration calorimetry binding of xylooligosaccharides to recombinant substrate-binding proteins.

For series [1], the target named is XylRA. Briefly: isothermal titration calorimetry. Particulars: 10 mM Tris-HCl pH 8.0, 100 mM NaCl, 25°C; effector.
The target in a further series is T2, XylC.
T2 construct: construct borders only in supplement
Briefly: isothermal titration calorimetry. The class given is binding, Vibrio sp. EA2. Particulars: 10 mM Tris-HCl pH 8.0, 100 mM NaCl, 25°C. In general terms: ITC needs no label: the signal is the heat of the interaction.

In series [2] the target is XylRA (Vibrio sp. EA2, UniProt A0A090T8X9 1-401). Briefly: EMSA; xylose; EMSA: 25 ng biotin-labelled probe, 0.1-0.5 nmol XylRA in 20 uL EMSA/Gel-shift binding buffer (Beyotime), xylose present, room temperature; salt and pH not stated. Particulars: protein: recombinant; tags: C-terminal His (pET-22b); chain copies: 2; label: 5'-biotin on strand 1; blunt.

The term Kd denotes the equilibrium constant for the complex coming apart. For `OC1OC[C@@H](O[C@@H]2OC[C@@H](O)[C@H](O)[C@H]2O)[C@H](O)[C@H]1O` (stereo partly drawn) [β-1,4X2], on BxlE, the dissociation constant Kd was 15.1 ± 4.04 nM. Same read-out and setting: the value for `OC1OC[C@@H](O[C@@H]2OC[C@@H](O[C@@H]3OC[C@@H](O[C@@H]4OC[C@@H](O)[C@H](O)[C@H]4O)[C@H](O)[C@H]3O)[C@H](O)[C@H]2O)[C@H](O)[C@H]1O` (stereo partly drawn) [β-1,4X4] was 13.2 ± 1.93 nM; that for `OC1OC[C@@H](O[C@@H]2OC[C@@H](O[C@@H]3OC[C@@H](O)[C@H](O)[C@H]3O)[C@H](O)[C@H]2O)[C@H](O)[C@H]1O` (stereo partly drawn) [β-1,4X3] was 6.28 ± 1.93 nM. Consider `OC1OC[C@@H](O)[C@H](O)[C@H]1O` (stereo partly shown) [X, xylose], for which, at XylRA [1], the Kd amounted to 5100 nM. `OC1OC[C@@H](O)[C@H](O[C@@H]2OC[C@@H](O)[C@H](O[C@@H]3OC[C@@H](O)[C@H](O[C@@H]4OC[C@@H](O)[C@H](O)[C@H]4O)[C@H]3O)[C@H]2O)[C@H]1O` (stereo partly drawn) [β-1,3X4, β-1,3-xylotetraose]: the Kd on XylC came out at 1000 nM.

B1: Pxyn26B (dsDNA)
DNA 1: ACACAAAAAAAATATAAAAATATAATCAGAAAAAATCATAATTGATATTG
DNA 2: CAATATCAATTATGATTTTTTCTGATTATATTTTTATATTTTTTTTGTGT
For the molecule B1, in the series with XylRA [2], the binding result is listed as “binds”.

B2: PxylC (dsDNA)
DNA 1: GGAAATAAATAGAATAAATGTGGTGAGAGATATAATAATACTTGCCATAG
DNA 2: CTATGGCAAGTATTATTATATCTCTCACCACATTTATTCTATTTATTTCC
As for B2, the binding result in the series with XylRA [2] was “binds”.

B3: PxylT (dsDNA)
DNA 1: ACATTTAGCAAATAGGTGAAATTTGGTATCAAAAATCATAATTGATGGCG
DNA 2: CGCCATCAATTATGATTTTTGATACCAAATTTCACCTATTTGCTAAATGT
Take B3: the binding result with XylRA [2] is “binds”.

B4: PxylT-m2 (dsDNA)
DNA 1: ACATTTAGCGCATAGGTGAAATTTGGTATCGCAAATCATAATTGATGGCG
DNA 2: CGCCATCAATTATGATTTGCGATACCAAATTTCACCTATGCGCTAAATGT
As for B4, the binding result with XylRA [2] is recorded as “no binding”.

B5: PxylB (dsDNA)
DNA 1: CAATTATGTTTTTTTACAGGTGAATTCACGGATTTCACGAGTGAGTCTGA
DNA 2: TCAGACTCACTCGTGAAATCCGTGAATTCACCTGTAAAAAAACATAATTG
On to B5, for which, in the series with XylRA [2], the binding result is “binds”.
